Assay results: US8436049B2, “Uses of pentamidine and related compounds” (State of Oregon Acting By and Through the State Board of …, priority 2008, dated 2013)
“And” between values parts separate entries of the source, which are not always exact repeats. Equal values may be shown once.

Key:
MBNL-CUG RNA complex = biological target: T1, MBNL-CUG RNA complex (Homo sapiens, UniProt Q9NR56); assay: Gel shift assay, disruption of MBNL binding to short CUG repeat RNA
T1 construct: Both the full length MBNL and MBNL (1-260) constructs were cloned using BamHI and NotI restriction sites; GST (N, cleaved yes); made in house; host or cells: E. coli BL21-Star
T1 sequence (Q9NR56 1-382 isoform Q9NR56-5): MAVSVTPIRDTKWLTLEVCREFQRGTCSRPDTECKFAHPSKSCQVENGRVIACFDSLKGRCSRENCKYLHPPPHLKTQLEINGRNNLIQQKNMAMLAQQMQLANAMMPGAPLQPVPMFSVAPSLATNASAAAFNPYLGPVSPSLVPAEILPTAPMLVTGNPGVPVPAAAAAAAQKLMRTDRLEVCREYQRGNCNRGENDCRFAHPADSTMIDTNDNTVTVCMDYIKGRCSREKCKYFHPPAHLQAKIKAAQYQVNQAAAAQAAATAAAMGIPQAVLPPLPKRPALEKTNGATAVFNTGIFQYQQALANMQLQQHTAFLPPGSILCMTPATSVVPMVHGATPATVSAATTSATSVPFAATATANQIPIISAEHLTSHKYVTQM
Protocol: MBNL1 (MBNL) was PCR amplified and was cloned into GST fusion vector pGEX-6P-1 (GE Healthcare, Piscataway, N.J.), using DNA encoding a MBNL isoform with amino acids 1-382). Both the full length MBNL and MBNL (1-260) constructs were cloned using BamHI and NotI restriction sites. Using BL21-Star expression cells (Invitrogen, Carlsbad, Calif.), protein expression was induced with 0.25 mM IPTG at an OD600 of about 0.5-1, for 3-4 hours at 37° C. Cells were lysed in 30 ml of buffer (500 mM NaCl, 25 mM Tris pH 7.5, 10 mM β-mercaptoethanol (BME) and 5% glycerol) using 1 mg/ml of lysozyme, followed by sonication (3×30 seconds). Cell extract was centrifuged for 15 minutes at 17,000 rpm, and lysate which contained GST-MBNL was collected. GST-MBNL was bound to GST affinity beads for 30 minutes at 4° C. […] The protein was then run over an anion exchange (Q) column. […] MBNL was collected in the column flow through, concentrated and dialyzed into storage buffer (30% glycerol, 300 mM NaCl, 20 mM Tris pH 7.5, 5 mM BME) and stored at −80° C. Aliquots were removed from −80° C. and temporarily placed at −20° C. until used for an experiment.
All RNA substrates that were radiolabeled were ordered from IDT DNA (Coralville, Iowa), and 5′ end-labeled using [γ-^32P]ATP. All radiolabeled RNAs were purified on 8% polyacrylamide denaturing gels.
Solutions for the protein-RNA binding experiments contained 125 mM NaCl, 5 mM MgCl2, 20 mM Tris (pH 7.5), 7.5% glycerol, 2 mg/ml bovine serum albumin, and 0.1 mg/ml heparin. Prior to incubation, RNA substrates were annealed by incubation at 95° C. for 2 minutes and then placed directly on ice for 20 minutes in 66 mM NaCl, 6.7 mM MgCl2, and 27 mM Tris (pH 7.5). Protein was then added to the RNA in the presence or absence of the small molecule. The binding reaction was carried out in a 10 μL volume and was incubated for 10 minutes at room temperature before 2-4 μL were loaded on a pre-chilled 4° C. gel. RNA and RNA-protein complexes were separated on 3% acrylamide (37.5:1), 0.3% agarose (low melting point), 0.5× Tris-Borate (TB) gels, run for approximately 2-3 hours at 4° C. at 25-50 volts. Gels were dried and autoradiographed. For the neomycin B and CUG8 gel shift, an 8% acrylamide (29:1), 0.5×TB gel was used and run for 3 hours at 4° C. at 175 volts. All small molecules were dissolved in either water or ethanol, according to the manufacturer's guidance for solubility.
For binding curves, gels were quantified using ImageQuant® software (Molecular Dynamics, Piscataway, N.J.). The percent RNA bound was determined by taking the ratio of RNA-protein complex to total RNA, per lane. Any counts in the well were discarded as it was unapparent if the RNA was bound by protein, small molecule or was in an aggregate. Binding curves were graphed using KaleidaGraph software (Synergy Software, Reading, Pa.). For the neomycin B and CUG8 gel shift, the apparent Kd was determined using Equation 1, where Y=fraction bound, m0=small molecule concentration, m1=total RNA concentration, and m2=Kd.
For determining the EC50, Equation 3 was used, where m0=small molecule concentration, m1=EC50, m2=Hill coefficient, and m3=fraction MBNL bound without small molecule present. Y=m3/[1+(m0/m1)^m2] Equation 3 Results

[1] = biological target: CUG repeats (fluorescein labeled RNA); assay: Fluorescence anisotropy, direct binding to fluorescein labeled CUG repeats; details: absence of MBNL, 25° C.
Protocol: Fluorescent RNAs were ordered from Dharmacon RNA Technologies (Lafayette, Colo.), and deprotected according to the manufacturer's protocol. RNA was snap annealed in 175 mM NaCl, 20 mM Tris pH 7.5, 5 mM MgCl2. All fluorescence anisotropy experiments were performed in this buffer, with the addition of 0.1 mg/ml of heparin when using protein. Experiments were performed at 25° C. in a 7.5 mm wide Spectrosil® far UV quartz cuvette (Starna Cells, Inc, Atascadero, Calif.), using an L-format FluoroMax®-3 fluorimeter (Horiba Jobin Yvon, Inc., Edison, N.J.). Each anisotropy run was normalized by setting the initial value of the anisotropy of the RNA alone to zero, which converts the data into Δ anisotropy. Curves were graphed using KaleidaGraph (Synergy) software. For curve fitting of titrations and determining apparent Kd values, Equation 1 was used (Example 1). The error bars on the binding curve were obtained by averaging individual titration points from three separate experiments and calculating the standard deviation.
To determine if pentamidine binds to the CUG repeats and not to MBNL, fluorescein labeled CUG repeats (FIG. 3A) were used to monitor the binding of pentamidine directly to the CUG repeats in the absence of MBNL.

N=C(N)c1ccc(OCCCCCOc2ccc(C(=N)N)cc2)cc1 [pentamidine]
Disruption of the MBNL-CUG interaction (MBNL-CUG RNA complex; gel shift screen, increasing amounts of small molecule): disrupt the MBNL-CUG interaction at micromolar concentrations
EC50 (MBNL-CUG RNA complex; gel shift, short CUG repeat RNA (CUG4), read-out: EC50 for disruption of MBNL binding to CUG repeat construct): ~58 µM and 58 µM
Kd [1]: ~19 µM and 19 µM
